4 molecules from ChEMBL document CHEMBL4007384, “Synthesis and optimization of furano[3,2-d]pyrimidines as selective spleen tyrosine kinase (Syk) inhibitors” (Bioorg Med Chem Lett, 2016) can be followed below.

Series [1] has as its target Fibroblast growth factor receptor 1 (Homo sapiens, UniProt P11362). The series can be described thus: Inhibition of FGFR1 (unknown origin) after 60 mins by TR-FRET assay. A general note: Time-resolved FRET reads energy transfer from a long-lived donor to a nearby acceptor.
Series [2] concerns the target Vascular endothelial growth factor receptor 1 (Homo sapiens, UniProt P17948). The series can be described thus: Inhibition of Flt1(unknown origin) after 60 mins by TR-FRET assay.
Series [3] has as its target Mitogen-activated protein kinase 9 (Homo sapiens, UniProt P45984). The experiment in a line: Inhibition of JNK2 (unknown origin) after 60 mins by TR-FRET assay.
The target of series [4] is Rho-associated protein kinase 2 (Homo sapiens, UniProt O75116). The experiment in a line: Inhibition of ROCK2 (unknown origin) after 60 mins by TR-FRET assay.
Series [5] deals with T1, Inhibitor of nuclear factor kappa-B kinase subunit epsilon (Homo sapiens, UniProt Q14164).
T1 sequence (Q14164 whole entry): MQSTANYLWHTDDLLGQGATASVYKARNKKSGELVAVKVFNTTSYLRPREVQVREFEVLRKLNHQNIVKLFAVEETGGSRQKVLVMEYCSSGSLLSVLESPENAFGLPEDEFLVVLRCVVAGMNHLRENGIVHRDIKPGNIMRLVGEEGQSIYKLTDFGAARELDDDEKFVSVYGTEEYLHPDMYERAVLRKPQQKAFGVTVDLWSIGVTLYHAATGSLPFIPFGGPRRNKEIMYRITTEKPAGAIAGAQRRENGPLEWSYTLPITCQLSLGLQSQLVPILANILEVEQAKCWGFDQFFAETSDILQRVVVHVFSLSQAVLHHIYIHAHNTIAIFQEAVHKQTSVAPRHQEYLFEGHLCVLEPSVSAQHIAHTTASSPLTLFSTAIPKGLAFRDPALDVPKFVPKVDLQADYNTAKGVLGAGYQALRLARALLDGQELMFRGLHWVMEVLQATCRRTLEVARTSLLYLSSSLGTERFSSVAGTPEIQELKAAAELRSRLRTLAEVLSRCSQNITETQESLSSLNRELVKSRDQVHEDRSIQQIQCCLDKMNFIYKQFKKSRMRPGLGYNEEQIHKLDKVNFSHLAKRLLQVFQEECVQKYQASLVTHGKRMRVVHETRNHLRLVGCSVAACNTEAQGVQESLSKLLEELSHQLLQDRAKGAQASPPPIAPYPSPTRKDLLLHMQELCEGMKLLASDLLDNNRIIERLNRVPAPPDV
The series can be described thus: Inhibition of IKKE (unknown origin) after 60 mins by TR-FRET assay.

Series [6] has as its target Tyrosine-protein kinase Lck (Homo sapiens, UniProt P06239). The series can be described thus: Inhibition of Lck (unknown origin) after 60 mins by TR-FRET assay.
For another series, the target named is Focal adhesion kinase 1 (Homo sapiens, UniProt Q05397). The experiment in a line: Inhibition of FAK (unknown origin) after 60 mins by TR-FRET assay.
Series [7] deals with Tyrosine-protein kinase Fyn (Homo sapiens, UniProt P06241). The series can be described thus: Inhibition of Fyn (unknown origin) after 60 mins by TR-FRET assay.
The target in series [8] is Macrophage colony-stimulating factor 1 receptor (Homo sapiens, UniProt P07333). The experiment in a line: Inhibition of CSF1R (unknown origin) after 60 mins by TR-FRET assay.
The target in series [9] is Hepatocyte growth factor receptor (Homo sapiens, UniProt P08581). The experiment in a line: Inhibition of c-MET (unknown origin) after 60 mins by TR-FRET assay.
Series [10] has as its target Leukocyte tyrosine kinase receptor (Homo sapiens, UniProt P29376). The series can be described thus: Inhibition of LTK (unknown origin) after 60 mins by TR-FRET assay.
The target of series [11] is NT-3 growth factor receptor (Homo sapiens, UniProt Q16288). The experiment in a line: Inhibition of TrkC (unknown origin) after 60 mins by TR-FRET assay.
Series [12] concerns the target T2, Serine/threonine-protein kinase Nek2 (Homo sapiens, UniProt P51955).
T2 sequence (P51955 whole entry): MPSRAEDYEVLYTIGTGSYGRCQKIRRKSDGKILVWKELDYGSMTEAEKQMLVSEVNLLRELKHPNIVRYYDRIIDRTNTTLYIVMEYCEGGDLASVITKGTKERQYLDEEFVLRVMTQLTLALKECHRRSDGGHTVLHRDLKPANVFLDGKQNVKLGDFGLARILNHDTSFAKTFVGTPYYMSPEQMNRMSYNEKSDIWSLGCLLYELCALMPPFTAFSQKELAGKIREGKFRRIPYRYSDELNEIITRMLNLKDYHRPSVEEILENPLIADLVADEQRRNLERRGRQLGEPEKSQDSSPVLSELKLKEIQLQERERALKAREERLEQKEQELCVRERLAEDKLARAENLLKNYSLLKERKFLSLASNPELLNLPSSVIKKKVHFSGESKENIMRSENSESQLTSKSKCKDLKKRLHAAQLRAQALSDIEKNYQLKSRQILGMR
The series can be described thus: Inhibition of NEK2 (unknown origin) after 60 mins by TR-FRET assay.

The target in series [13] is BDNF/NT-3 growth factors receptor (Homo sapiens, UniProt Q16620). The series can be described thus: Inhibition of TrkB (unknown origin) after 60 mins by TR-FRET assay.
Series [14] addresses Dual specificity tyrosine-phosphorylation-regulated kinase 1A (Homo sapiens, UniProt Q13627). The experiment in a line: Inhibition of DYRK1A (unknown origin) after 60 mins by TR-FRET assay.
Series [15] has as its target Calcium/calmodulin-dependent protein kinase type II subunit alpha (Homo sapiens, UniProt Q9UQM7). The series can be described thus: Inhibition of human CAMK2A (unknown origin) after 60 mins by TR-FRET assay.
Series [16] has as its target Serine/threonine-protein kinase PAK 4 (Homo sapiens, UniProt O96013). The series can be described thus: Inhibition of PAK4 kinase domain (unknown origin) after 60 mins by TR-FRET assay.
Series [17] in a line: Unbound clearance in rat microsomes. It is filed as ADME, Microsome.

The term IC50 denotes the midpoint of a concentration-inhibition curve.

Turning to `CC1(C)OCC(=O)Nc2cc(Nc3nc(NCC(F)(F)F)c4occc4n3)ccc21`, the IC50 in [1] was over 10 µM; in series [2] it was 9.13 µM; in series [3], over 10 µM; in [4], 6.32 µM; in [5], 3.43 µM; in series [6], 0.699 µM. Moreover, the IC50 against Focal adhesion kinase 1 was 5.5 µM; in series [7] it was 0.201 µM; in series [8], over 10 µM; in [9] it was over 10 µM; in [10] it was 5.11 µM; in [11], 7.7 µM. The half-maximal inhibitory concentration (IC50) in series [12] was over 10 µM; in [13], 0.379 µM; in [14], over 10 µM; in series [15], over 10 µM; in series [16], over 10 µM. The CL free in [17] is under 81.7 mL/min/kg.

Take `FC(F)(F)CNc1nc(Nc2ccc3cn[nH]c3c2)nc2ccoc12`: the half-inhibitory concentration (IC50) in series [1] was over 10 µM; in [2], over 10 µM; in [3] it was over 10 µM; in series [5], over 10 µM; in [6], 7.79 µM; on Focal adhesion kinase 1 it was over 10 µM. For the same molecule, the half-inhibitory concentration (IC50) in series [8] is over 10 µM; in series [9], over 10 µM; in [10] it was 7.4 µM; in series [11], over 10 µM; in [12], over 10 µM; in series [14] it was 4.86 µM. Besides, the IC50 in series [15] was over 10 µM; in series [16], 6.44 µM. Further, the CL free in [17] is 255 mL/min/kg.

For `Cc1n[nH]c2cc(Nc3nc(NC4CC4)c4occc4n3)ccc12`, the half-inhibitory concentration (IC50) in series [1] is over 10 µM; in series [2], over 10 µM; in series [3], over 10 µM; in series [4], over 10 µM; in series [5], over 10 µM; in series [7] it was 5.96 µM. Besides, the concentration for half-maximal inhibition (IC50) in series [8] is over 10 µM; in [9], over 10 µM; in series [10], 6.01 µM; in series [11], over 10 µM; in series [12] it was over 10 µM; in series [13], over 10 µM. In addition, the concentration for half-maximal inhibition (IC50) in [14] is over 10 µM; in [15] it was over 10 µM; in series [16], 6.79 µM.

Regarding `FC(F)(F)CNc1nc(Nc2ccc(N3CCOCC3)c(Cl)c2)nc2ccoc12`, the IC50 in series [1] is over 10 µM; in series [2], over 10 µM; in [3] it was over 10 µM; in series [4], over 10 µM; in [5], over 10 µM; in series [6], 3.7 µM. The IC50 against Focal adhesion kinase 1 was over 10 µM; in [7] it was 1.51 µM; in series [8], over 10 µM; in series [9] it was over 10 µM; in [10], over 10 µM; in [11], over 10 µM. Moreover, the IC50 in [12] was over 10 µM; in series [13], 8.34 µM; in series [14] it was over 10 µM; in series [15], over 10 µM; in [16], over 10 µM. The molecule further registered a CL free in series [17] of 1600 mL/min/kg.
